The values that follow come from ChEMBL document CHEMBL6092192 (J Med Chem, 2024).

Test [1] has as its system SW620/AD300. As to the kind of experiment: Cytotoxicity against multidrug resistant human SW620/AD300 cells assessed as survival rate at 4 uM measured after 72 hrs by MTT assay relative to control. Type of test: functional. The conditions noted are these: read-out: Survival. Background: Tetrazolium assays rely on reduction of a dye to a coloured formazan, in cell work by metabolically active cells.

Test [2] deals with SW620/AD300. Kind of test: Reversal of paclitaxel resistance in human SW620/AD300 cells assessed as reversal fold by measuring ratio of paclitaxel IC50 to paclitaxel IC50 in presence of test compound incubated for 72 hrs by MTT assay. In kind it is functional.
The subject of the next test is KB 3-1. Kind of test: Cytotoxicity against human KB 3-1 cells measured after 72 hrs by MTT assay. The conditions noted are these: KB 3-1, 72 h. Type of test: functional, cell-based.
Another test concerns KB-C2. Kind of test: Cytotoxicity against human KB-C2 cells measured after 72 hrs by MTT assay. In kind it is functional, cell-based. The conditions noted are these: KB-C2, 72 h.
Test [3] has as its system SW-620. As to the kind of experiment: Reversal of paclitaxel resistance in human SW620 cells assessed as reversal fold by measuring ratio of paclitaxel IC50 to paclitaxel IC50 in presence of test compound at 4 uM incubated for 72 hrs by MTT assay. In kind it is functional.
Test [4] has as its system SW620/AD300. Kind of test: Cytotoxicity against multidrug resistant human SW620/AD300 cells measured after 72 hrs by MTT assay. Type of test: functional, cell-based. The conditions noted are these: SW620/AD300, 72 h.
In test [5] the test system is HEK293. As to the kind of experiment: Cytotoxicity against HEK293 cells transfected with pcDNA3.1 measured after 72 hrs by MTT assay. In kind it is functional, cell-based. The conditions noted are these: Homo sapiens, HEK293, 72 h.
The test system of test [6] is HEK293. Kind of test: Cytotoxicity against HEK293 cells harbouring ABCB1 measured after 72 hrs by MTT assay. In kind it is functional, cell-based. The conditions noted are these: Homo sapiens, HEK293, 72 h.
For test [7], the system named is SW-620. As to the kind of experiment: Cytotoxicity against human SW620 cells measured after 72 hrs by MTT assay. Type of test: functional, cell-based. The conditions noted are these: SW-620, 72 h.

`O=c1c2c([nH]c3ncnn13)COC2`: the viability at 4 µM in the test on SW620/AD300 [1] was determined as 98%. Also, the “Ratio IC50” value with SW620/AD300 [2] was 6.75.
In the case of `Cc1cc(=O)n2nc(SCc3ccc(Br)cc3)nc2[nH]1`, the viability at 4 µM in the test with SW620/AD300 [1] came out at 94.9%. In the test with SW620/AD300 [2], the “Ratio IC50” value came out at 10.29.
On the same counts, the results for `Cc1cc(=O)n2nc(SCc3ccc(F)cc3)nc2[nH]1` are 99.4% and 14.9.
On the same counts, the results for `COc1ccc(CSc2nc3[nH]c(C)cc(=O)n3n2)cc1` are 93.6% and 33.49.
The corresponding values for `COC(=O)c1nc2[nH]c(C)cc(=O)n2n1` are 97.9% and 4.5.
On to `Cc1cc(=O)n2nc(SCc3ccc(C(F)(F)F)cc3)nc2[nH]1`, for which the viability at 4 µM with SW620/AD300 [1] came to 97.6%. Also, the “Ratio IC50” value with SW620/AD300 [2] is reported as 4.08.
The corresponding values for `CCOC(=O)CCc1c(C)[nH]c2ncnn2c1=O` are 94.2% and 1.03.
The corresponding values for `C#CCSc1nc2[nH]c3c(c(=O)n2n1)CCC3` are 96.9% and 24.
On the same counts, the results for `Cc1cc(=O)n2nc(SCc3csc4ccc(Cl)cc34)nc2[nH]1` are 94.6% and 18.
For `Cc1cc(=O)n2nc(SCc3cc(=O)oc4c3ccc3ccccc34)nc2[nH]1`, in the test on SW620/AD300 [1], the viability at 4 µM worked out at 97.1%. Further, the “Ratio IC50” value in the test on SW620/AD300 [2] is 57.6.
As usually defined, the IC50 is the point on the concentration scale where inhibition reaches its midpoint. Lower therefore signals greater potency. With `CC(=O)O[C@H]1C(=O)[C@@]2(C)[C@H]([C@H](OC(=O)c3ccccc3)[C@]3(O)C[C@H](OC(=O)[C@H](O)[C@@H](NC(=O)c4ccccc4)c4ccccc4)C(C)=C1C3(C)C)[C@]1(OC(C)=O)CO[C@@H]1C[C@@H]2O` [PACLITAXEL], the half-maximal inhibitory concentration (IC50) was 4.32 nM in the test on KB 3-1; 2090 nM in the test with KB-C2; 4320 nM in the test with SW620/AD300 [4]; 2.08 nM in the test with HEK293 [5]; 106 nM in the test with HEK293 [6]; 6.55 nM in the test with SW-620 [7]. Also, the “Ratio IC50” value with SW-620 [3] is given as 1.03.
On to `Cc1cc(=O)n2ncnc2[nH]1`, for which the viability at 4 µM with SW620/AD300 [1] was 97.6%. Also, the “Ratio IC50” value with SW620/AD300 [2] is 5.4.
The corresponding values for `Cc1cc(=O)n2nc(SCc3ccc(Cl)cc3)nc2[nH]1` are 94.5% and 13.94.
On the same counts, the results for `Cc1cc(=O)n2c(nc3ccccc32)[nH]1` are 96.2% and 1.09.
Consider `O=c1c2c([nH]c3ncnn13)CCCC2`, for which, in the test with SW620/AD300 [1], the viability at 4 µM is 94.7%. In addition, the “Ratio IC50” value with SW620/AD300 [2] came to 6.45.
The corresponding values for `Cc1cc(=O)n2nc(SCc3ccc(Cl)c(F)c3)nc2[nH]1` are 97.6% and 18.
For the compound `O=c1c2c([nH]c3ncnn13)CCCCC2`, in the test on SW620/AD300 [1], the viability at 4 µM was found to be 95.3%. For the same compound, in the test on SW620/AD300 [2], the “Ratio IC50” value was 3.57.
The corresponding values for `COC(=O)c1nc2[nH]c3c(c(=O)n2n1)CCC3` are 94.7% and 20.57.
On the same counts, the results for `O=c1cc(C2CC2)[nH]c2ncnn12` are 92.5% and 1.36.
The corresponding values for `Cc1cc(=O)n2nc(SCc3nc4ccccc4s3)nc2[nH]1` are 97.2% and 60.85.
Turning to `CCc1cc(=O)n2ncnc2[nH]1`, the viability at 4 µM in the test with SW620/AD300 [1] is 95.9%. Moreover, the “Ratio IC50” value in the test with SW620/AD300 [2] is reported as 1.83.
On the same counts, the results for `Cc1cc(=O)n2nc(SCc3nc4ccccc4[nH]3)nc2[nH]1` are 96.8% and 44.54.
On the same counts, the results for `Cc1cc(=O)n2nc(SCc3ccc([N+](=O)[O-])cc3)nc2[nH]1` are 93.2% and 7.08.
On the same counts, the results for `O=c1c2c([nH]c3nc(SCc4csc5ccc(Cl)cc45)nn13)CCC2` are 98.8% and 56.1.
Regarding `CC(C)c1cc(=O)n2ncnc2[nH]1`, the viability at 4 µM in the test on SW620/AD300 [1] stood at 95.7%. Moreover, the “Ratio IC50” value with SW620/AD300 [2] stood at 1.39.
As for `Cc1cc(=O)n2nc(SCC3CCCCC3)nc2[nH]1`, the viability at 4 µM with SW620/AD300 [1] was 92.6%. In addition, the “Ratio IC50” value in the test with SW620/AD300 [2] was found to be 6.
On the same counts, the results for `Cc1cc(=O)n2nc(SCc3ccccc3)nc2[nH]1` are 95% and 10.8.
On the same counts, the results for `O=c1c2c([nH]c3ncnn13)CCC2` are 96.2% and 13.94.
On the same counts, the results for `O=c1c2c([nH]c3nc(SCc4ccccc4)nn13)CCC2` are 94.7% and 25.41.
As for `Cc1cc(=O)n2c(C#N)c(C#N)nc2[nH]1`, the viability at 4 µM with SW620/AD300 [1] is 97.5%. Besides, the “Ratio IC50” value in the test on SW620/AD300 [2] stood at 1.38.
Take `O=c1cc(C(F)F)[nH]c2ncnn12`: the viability at 4 µM with SW620/AD300 [1] is 92.4%. Also, the “Ratio IC50” value in the test with SW620/AD300 [2] is on record as 1.06.
Regarding `O=c1cc(-c2ccccc2)[nH]c2ncnn12`, in the test on SW620/AD300 [1], the viability at 4 µM amounted to 99%. For the same compound, the “Ratio IC50” value in the test with SW620/AD300 [2] is recorded as 1.03.
The corresponding values for `Cc1cc(=O)n2nccc2[nH]1` are 93.9% and 2.81.
On the same counts, the results for `O=c1c2c([nH]c3nc(SCc4nc5ccccc5[nH]4)nn13)CCC2` are 94.7% and 69.68.
The corresponding values for `C#CCSc1nc2[nH]c(C)cc(=O)n2n1` are 97.2% and 4.6.
In the case of `Cc1cc(=O)n2nc(SCc3cccc4ccccc34)nc2[nH]1`, the viability at 4 µM in the test with SW620/AD300 [1] was 97.8%. Also, the “Ratio IC50” value in the test on SW620/AD300 [2] is 24.27.
On to `Cc1[nH]c2ncnn2c(=O)c1C`, for which, in the test on SW620/AD300 [1], the viability at 4 µM stood at 93.8%. In addition, the “Ratio IC50” value in the test with SW620/AD300 [2] worked out at 4.36.
The corresponding values for `O=c1c2c([nH]c3ncnn13)CSC2` are 97.7% and 8.
On the same counts, the results for `CCCCCc1c(C)[nH]c2ncnn2c1=O` are 98.6% and 1.
